Experimental data as given in patent US20230382920A1, “SHMT Inhibitors” (The Trustees of Princeton University, priority 2020, published 2023).
Structures can show the parent of a compound that is named as a salt. Where two headings read alike, the source gives them in different places.

Test: Pharmacokinetics study of KDG-0320-0A in male CD1 mice (Example 1)
Assay type: in vivo
Details: for F: bioavailability vs 1 mg/kg IV; for MRT inf: read-out: MRTInf_obs
Procedure: A standard pharmacokinetic (PK) study of KDG-0320-0A was performed in male CD1 mice dosed with a single oral, intravenous or intraperitoneal dose of KDG-0320-0A. The parameters of the PK study are described in Table 2. Dosing solutions were freshly made prior to use. […] For IV, PO and IP, after collection, plasma samples from the same time point were pooled, and the pooled samples were analyzed by LC/MS/MS.
The desired serial concentrations of working solutions were achieved by diluting stock solution of analyte with 50% acetonitrile in water solution. 5 μL of working solutions (2, 4, 10, 20, 100, 200, 1000, 2000 ng/mL) were added to 10 μL of blank CD1 mouse plasma to achieve calibration standards of 1-1000 ng/mL (1, 2, 5, 10, 50, 100, 500, 1000 ng/mL) in a total volume of 15 μL. Four quality control (QC) samples at 2 ng/mL, 5 ng/mL, 50 ng/mL and 800 ng/mL for plasma were prepared independently of those used for the calibration curves. These QC samples were prepared on the day of analysis in the same way as calibration standards.
15 μL standards, 15 μL QC samples and 15 μL unknown samples from the blood sampling (10 μL plasma with 5 μL blank solution) were added to 200 μL of acetonitrile containing IS mixture for precipitating protein. Then, the samples were vortexed for 30 seconds. After centrifugation at 4 degrees Celsius, 4000 rpm for 15 minutes, the supernatant was diluted three times with water. 15 μL of diluted supernatant was injected into the LC/MS/MS system for quantitative analysis.
BLOQ=Below quantifiable limit of 1 ng/mL. PK parameters were estimated by non-compartmental model using WinNonlin 6.1. The PO bioavailability (F %) was calculated as following:
AUClast-PO/AUCINF-PO>80%: F=(AUCINF-PO*DoseIV)/(mean AUCINF-IV*DosePO) AUClast-PO/AUCINF-PO≤80% or AUCINF was not available: F=(AUClast-PO*DoseIV)/(mean AUClast-IV*DosePO).
The IP bioavailability (F %) was calculated as following:
AUClast-IP/AUCINF-IP>80%: F=(AUCINF-IP*DoseIV)/(mean AUCINF-IV*DoseIP) AUClast-IP/AUCINF-IP≤80% or AUCINF was not available: F=(AUClast-IP*DoseIV)/(mean AUClast-IV*DoseIP).

[1] = mouse, plasma, 1 mg/kg IV, read-out: Concentration IV_Mean
[2] = mouse, plasma, 30 mg/kg IP, read-out: Concentration IP_Mean
[3] = mouse, plasma, 50 mg/kg PO, read-out: Concentration PO_Mean

Compound: Cc1n[nH]c2c1C(c1cc(C#C[C@H]3CC[C@H](NC(=O)OC(C)(C)C)CC3)cc(CO)c1)(C(C)C)C(C#N)=C(N)O2 (some centres unmarked) [KDG-0320, tert-butyl N-[(1r,4r)-4-[2-(3-[6-amino-5-cyano-4-isopropyl-3-methyl-1H-pyrano[2,3-c]pyrazol-4-yl]-5-(hydroxymethyl)phenyl)ethynyl]cyclohexyl]carbamate hydrochloride]
- AUC_%Extrap_obs (1 mg/kg IV): 2.88%
- AUClast/D (1 mg/kg IV): 155 kg·ng·h/mL/mg
- Cl_obs (1 mg/kg IV): 104 mL/min/kg
- Vss_obs (1 mg/kg IV): 3.96 L/kg
- AUC_%Extrap_obs (30 mg/kg IP): 1.41%
- AUClast/D (30 mg/kg IP): 258 kg·ng·h/mL/mg
- F (30 mg/kg IP): 164%
- AUC_%Extrap_obs (50 mg/kg PO): 1.77%
- AUClast/D (50 mg/kg PO): 32.5 kg·ng·h/mL/mg
- F (50 mg/kg PO): 20.8%
- AUC(0-inf) (mouse, plasma, 1 mg/kg IV): 160 ng·h/mL
- AUC(0-t) (mouse, plasma, 1 mg/kg IV): 155 ng·h/mL
- C0 (mouse, plasma, 1 mg/kg IV): 575 ng/mL
- half-life (mouse, plasma, 1 mg/kg IV): 1.04 h
- concentration at 0.083 h (mouse, plasma, 1 mg/kg IV, 0.083 h, read-out: Concentration IV_Mean): 363 ng/mL
- concentration at 0.25 h [1]: 144 ng/mL
- concentration at 0.5 h [1]: 60.2 ng/mL
- concentration at 1 h [1]: 25.7 ng/mL
- concentration at 2 h [1]: 7.16 ng/mL
- concentration at 4 h [1]: 3.07 ng/mL
- MRT inf (mouse, plasma, 1 mg/kg IV): 0.632 h
- AUC(0-inf) (mouse, plasma, 30 mg/kg IP): 7840 ng·h/mL
- AUC(0-t) (mouse, plasma, 30 mg/kg IP): 7730 ng·h/mL
- Cmax (mouse, plasma, 30 mg/kg IP): 7460 ng/mL
- Tmax (mouse, plasma, 30 mg/kg IP): 0.25 h
- half-life (mouse, plasma, 30 mg/kg IP): 1.66 h
- concentration at 0.25 h [2]: 7460 ng/mL
- concentration at 0.5 h [2]: 5240 ng/mL
- concentration at 1 h [2]: 3060 ng/mL
- concentration at 2 h [2]: 589 ng/mL
- concentration at 4 h [2]: 211 ng/mL
- concentration at 8 h (mouse, plasma, 30 mg/kg IP, 8 h, read-out: Concentration IP_Mean): 46.2 ng/mL
- MRT inf (mouse, plasma, 30 mg/kg IP): 1.27 h
- AUC(0-inf) (mouse, plasma, 50 mg/kg PO): 1660 ng·h/mL
- AUC(0-t) (mouse, plasma, 50 mg/kg PO): 1630 ng·h/mL
- Cmax (mouse, plasma, 50 mg/kg PO): 605 ng/mL
- Tmax (mouse, plasma, 50 mg/kg PO): 1 h
- half-life (mouse, plasma, 50 mg/kg PO): 1.28 h
- concentration at 0.25 h [3]: 117 ng/mL
- concentration at 0.5 h [3]: 315 ng/mL
- concentration at 1 h [3]: 605 ng/mL
- concentration at 2 h [3]: 411 ng/mL
- concentration at 4 h [3]: 126 ng/mL
- concentration at 8 h (mouse, plasma, 50 mg/kg PO, 8 h, read-out: Concentration PO_Mean): 15.8 ng/mL
- MRT inf (mouse, plasma, 50 mg/kg PO): 2.3 h
- Concentration IV_Mean (plasma, 1 mg/kg IV, 8 h): BLOQ
- clinical symptoms (single dose 1 mg/kg IV, 50 mg/kg PO or 30 mg/kg IP, entire experiment): No abnormal clinical symptoms were observed
